Results reported in PMC12707362, “Targeting Aurora Kinases as Essential Cell‐Cycle Regulators to Deliver Multi‐Stage Antimalarials Against Plasmodium Falciparum” (Angewandte Chemie (International Ed. in English), 2025).
pIC50: −log10 of the molar value. Like-named read-outs stand apart in the source and are kept apart here.

How the values were obtained:
[1] = Protein binding in Albumax II media; format: in vitro ADME; details: bovine
Source text: In vitro ADME analysis for logD, kinetic solubility (PBS, pH 7.4), human liver microsome clearance and t1/2, rat hepatocyte clearance and t1/2, and protein binding in Albumax media (simulating the malaria parasite culture media) was all performed as per standard assays by TCG LifeSciences.

[2] = tested on: P. berghei liver schizonts in HepG2-A16-CD81EGFP cells; assay: P. berghei (PbLuc) liver stage assay; format: cell-based; details: Plasmodium berghei
Source text: (B) Antiplasmodial activity of nine anticancer aurora kinase inhibitors (selected based on their PfNF54 ABS activity) against P. falciparum multidrug-resistant ABS parasites (PfDd2 and PfK1). (C) Kinobead competitive inhibition data.
Plasmodium berghei (Pb) sporozoites were obtained by dissecting the salivary glands of infected Anopheles stephensi mosquitoes. These were provided by The SporoCore, at the University of Georgia, GA, USA (SporoCore.uga.edu). The parasites utilised a GFP-Lucama1-eef1 reporter line^[5]. These engineered parasites, termed Pb-Luc, were used to infect HepG2-A16-CD81EGFP cells. HepG2-A16-CD81EGFP cells stably transformed to express a GFP-CD81 fusion protein^[6] were cultured at 37 °C in 5% CO2 in DMEM (Invitrogen, Carlsbad, USA) supplemented with 10% FBS (Corning, NY, USA), 1X Pen/Strep/Glu (Thermo Fisher Scientific, USA). Compounds were prepared as 10 mM solutions in DMSO, and 10 nL of each (resulting in a final DMSO concentration of 0.1% per well) was transferred into assay plates using an ECHO 650 (Beckman). Concentrations ranged from 10 µM to 0.5 nM. Atovaquone (0.1 µM) served as a positive control, while 0.1% DMSO was used as a negative control. Liver stage (PbLuc) screening has been previously described^[7]. Human hepatic cells (3 × 10^3; HepG2-A16-CD81-EGFP) suspended in 5 µL of DMEM medium ([…], supplemented with 5% FBS, 5× Pen/Strep/Glu) were seeded in 1536-well plates (Greiner BioOne) using the MultiFlo FX (Agilent) 20 h before infection. PbLuc sporozoites, isolated from the salivary glands of A. stephensi mosquitoes, were filtered twice through a 20 µm nylon pore cell strainer. The sporozoites were resuspended in screening media, counted with a hemocytometer, and diluted to a final concentration of 200 sporozoites per µL. Each well received 1,000 sporozoites in 5 µL, dispensed via the GNF Dispenser II (GNF Systems). […] Luminescence was measured immediately with the Pherastar FSX reader (BMG Labtech). Luminescence values were normalized using the positive and negative controls. EC50 values were calculated with CDD Vault (Burlingame, CA). […]

recombinant PfNek1 = assay: KinaseSeeker single-point assay, PfNek1; format: binding, Plasmodium falciparum; details: single point 1 µM
Plasmodium kinases = assay: Kinobead competitive inhibition; format: binding; details: 10 µM, log2 fold change below -1 versus vehicle
[3] = tested on: PfArk2 (PF3D7_0309200) cKD parasites; assay: Inhibitor susceptibility assay, PfArk2 conditional knockdown line; format: cell-based, Plasmodium falciparum; details: cKD versus control
Experimental: Compound susceptibility assays using P. falciparum Ark1 and Ark2 cKD lines were carried out as previously described^[13]. Ark1 (PF3D7_0605300) and Ark2 (PF3D7_0309200) cKD lines generated by fusing the coding sequence and non-coding RNA aptamer sequences in the 5’- and 3’-UTR, permitting translation regulation using the TetR-DOZI system^[14]. Editing was achieved by CRISPR/SpCas9 using the linear pSN054 vector that contains cloning sites for the left homology region (LHR) and the right homology region (RHR), as well as a gene-specific guide RNA under control of the T7 promoter^[15]. The final constructs were sequence-verified and further confirmed by restriction digests. Transfection into Cas9- and T7 RNA polymerase-expressing NF54 parasites was carried out by pre-loading erythrocytes with the donor vector as previously described^[16]. Parasite culture was maintained continuously in 500 nM anhydrotetracycline (aTc, Sigma-Aldrich 37919) and drug selection with 2.5 μg/mL of Blasticidin S (RPI Corp B12150-0.1) was initiated four days after transfection. Briefly, synchronous ring-stage Ark1 (PF3D7_0605300) and Ark2 (PF3D7_0309200) cKD parasites, as well as a control parasite line expressing an aptamer-regulatable fluorescent protein, were maintained in the presence of high aTc (500 nM) or no aTc and distributed into 384-well polystyrene microplates (Corning). […]

recombinant PfArk3 = assay: KinaseSeeker three-hybrid split-luciferase competitive binding assay, PfArk3; parameters: species or system Plasmodium falciparum; details: single point 1 µM
Experimental: Supplementary Figure S3: (A) Single-point activity profile of selected inhibitors at 1 µM against recombinant PfArk-1 and PfArk-3 proteins, utilising a three-hybrid split-luciferase competitive binding assay (KinaseSeeker™).

| SMILES | fraction unbound [1] | pIC50 ([2]; read-out: IC50 P. berghei liver schizonts) | pIC50 ([2]; 48 h, PbLuc, read-out: Pb liver stage IC50) | effect on PfNek1 (recombinant PfNek1) | Plasmodium kinases competed from Kinobeads (Plasmodium kinases) | change in IC50 in PfArk2 cKD [3] | inhibition of PfArk3 (recombinant PfArk3) |
| --- | --- | --- | --- | --- | --- | --- | --- |
| COc1cc(N2CCC(N3CCN(C)CC3)CC2)ccc1Nc1ncc(Cl)c(Nc2ccccc2S(=O)(=O)C(C)C)n1 [TAE684, NVP-TAE684] | 0.2 | > 6.70 | 6.18 | 40% | three Plasmodium kinases were competed from Kinobeads | no change in the IC50 value |  |
| CCN1CCN(C(=O)Cc2ccc(Nc3ncc(F)c(Nc4ccc(C(=O)Nc5ccccc5Cl)cc4)n3)cc2)CC1 [AAi I, Aurora A Inhibitor I] |  |  |  |  |  |  | 40% |
